Assay results taken from paper PMC13045254, “Dual Targeting of DNA and EGFR by ZYH005 Induces DNA Damage and Mitotic Catastrophe in Glioblastoma” (MedComm, 2026).

Biological target: T1, epidermal growth factor receptor (EGFR) (Homo sapiens, UniProt P00533)
T1 construct: recombinant EGFR kinase domain
Assay: SPR with recombinant kinase domain; supported by CETSA, DARTS and LiP-MS
Assay type: binding

T1 sequence (P00533 712-979 limits assumed): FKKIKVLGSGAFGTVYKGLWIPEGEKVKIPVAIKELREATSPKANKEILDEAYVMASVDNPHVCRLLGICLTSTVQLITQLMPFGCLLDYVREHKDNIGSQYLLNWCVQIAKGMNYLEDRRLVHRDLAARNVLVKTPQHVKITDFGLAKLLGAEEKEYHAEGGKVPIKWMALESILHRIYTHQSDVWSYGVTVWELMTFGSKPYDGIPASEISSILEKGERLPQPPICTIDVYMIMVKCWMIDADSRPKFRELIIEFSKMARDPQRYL

COc1ccc(CCn2c(=O)c3cc4c(cc3c3ccccc32)OCO4)cc1 [Z5, ZYH005]
Kd: 19.6 µM
